Test results published in ChEMBL document CHEMBL1124019, “Synthesis and anticholinesterase activity of (-)-N1-norphysostigmine, (-)-eseramine, and other N(1)-substituted analogues of (-)-physostigmine” (J Med Chem, 1988).

Molecular target: Acetylcholinesterase (Electrophorus electricus, UniProt O42275)
Sequence (O42275 whole entry): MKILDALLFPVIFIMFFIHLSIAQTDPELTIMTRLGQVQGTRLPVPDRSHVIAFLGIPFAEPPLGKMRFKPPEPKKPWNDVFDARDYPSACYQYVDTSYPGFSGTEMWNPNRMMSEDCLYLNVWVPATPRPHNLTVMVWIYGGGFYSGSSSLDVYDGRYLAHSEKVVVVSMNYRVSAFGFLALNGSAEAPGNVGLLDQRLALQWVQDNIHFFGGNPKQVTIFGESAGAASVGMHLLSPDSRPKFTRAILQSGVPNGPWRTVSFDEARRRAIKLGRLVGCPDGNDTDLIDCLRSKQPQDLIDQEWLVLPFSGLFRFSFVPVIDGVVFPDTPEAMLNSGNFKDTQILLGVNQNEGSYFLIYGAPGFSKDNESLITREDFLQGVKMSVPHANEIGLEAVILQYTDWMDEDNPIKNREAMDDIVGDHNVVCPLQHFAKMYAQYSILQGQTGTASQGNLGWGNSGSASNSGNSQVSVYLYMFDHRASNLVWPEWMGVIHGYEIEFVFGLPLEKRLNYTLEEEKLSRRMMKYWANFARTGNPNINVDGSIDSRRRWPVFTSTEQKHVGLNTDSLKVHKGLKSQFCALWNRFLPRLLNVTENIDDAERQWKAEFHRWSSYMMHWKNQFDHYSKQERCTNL
Description: In vitro inhibitory activity against acetylcholinesterase from electric eel

Compound	IC50
CN(C)C(=O)Oc1cccc([N+](C)(C)C)c1 [NEOSTIGMINE BROMIDE]	0.087 µM
CNC(=O)Oc1ccc2c(c1)[C@]1(C)CCN(C(=O)NC)C1N2C (some centres not stated)	9.3 µM
